Measured values published in PubChem BioAssay (NCI).
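How tested: cells in 96-well plates exposed to compound for 48 hours at five concentrations. TGI: total growth inhibition.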

Key:
Experiment in all cases: NCI-60 cell line screen, 48 h
IGROV1 ovarian = test system: IGROV1 ovarian
MCF7 breast = test system: MCF7 breast
NCI-H226 lung = test system: NCI-H226 lung
NCI-H23 lung = test system: NCI-H23 lung
OVCAR-3 ovarian = test system: OVCAR-3 ovarian
SK-OV-3 ovarian = test system: SK-OV-3 ovarian
SNB-19 CNS = test system: SNB-19 CNS
SNB-75 CNS = test system: SNB-75 CNS
TK-10 renal = test system: TK-10 renal
CCRF-CEM leukemia = test system: CCRF-CEM leukemia
RPMI-8226 leukemia = test system: RPMI-8226 leukemia

SMILES	TGI (IGROV1 ovarian) [µM]	TGI (MCF7 breast) [µM]	TGI (NCI-H226 lung) [µM]	TGI (NCI-H23 lung) [µM]	TGI (OVCAR-3 ovarian) [µM]	TGI (SK-OV-3 ovarian) [µM]	TGI (SNB-19 CNS) [µM]	TGI (SNB-75 CNS) [µM]	TGI (TK-10 renal) [µM]	TGI (CCRF-CEM leukemia) [µM]	TGI (RPMI-8226 leukemia) [µM]
COc1cc2nc(-c3cccs3)nc(N3C(c4cc(OC)c(OC)c(OC)c4)=NNC(=O)c4ccccc43)c2cc1OC	> 100	> 100	> 100	35.4	50.2	> 100	46.3	54.2	51.9	–	–
CC(C)(CO)CNc1cc(Cl)nc(N)n1	> 100	> 100	> 100	> 100	> 100	–	–	> 100	> 100	> 100	> 100
Cc1cc(S(=O)(=O)Nc2n[nH]c(Nc3ccccc3)n2)c(SSc2cc(Cl)c(C)cc2S(=O)(=O)Nc2n[nH]c(Nc3ccccc3)n2)cc1Cl	> 100	> 10	–	> 100	> 100	> 100	> 100	> 100	> 100	> 100	> 100
COc1ccc(C2=Nc3c(nc(SC)[nH]c3=O)NC(c3ccccc3)C2)cc1 (stereo not given)	55.6	41.8	65.2	45.6	> 100	51.9	65.4	48.8	–	98.6	62
Fc1ccc2c(c1)nc1n2C(c2c(F)cccc2F)SC1 (stereo not given)	> 100	> 100	> 100	> 100	> 100	> 100	> 100	> 100	> 100	–	> 100
CCOC(=O)C1CCCN1C(=O)c1ccccc1Cl (stereo not given)	> 100	> 100	> 100	> 100	> 100	–	> 100	> 100	> 100	> 100	> 100
CC1C(c2ccccc2)NC(c2ccccc2)CC1(N)C#N (stereo not given)	> 100	> 100	> 100	> 100	> 100	> 100	> 100	> 100	> 100	> 100	–
Cc1ccc(S(=O)(=O)N/N=C\c2c3ccccc3[n+](C)c3ccccc23)cc1	> 100	–	60.1	> 100	71.5	> 100	75.1	46	> 100	44.2	> 100
ClC1=C(Cl)C2OC3C=CCC3OC2C(Cl)=C1Cl (stereo not given)	> 100	> 100	> 100	> 100	> 100	> 100	–	–	> 100	> 100	66.4
Clc1ncnc2c1nc(C#Cc1ccccc1)n2C1CCCCO1 (stereo not given)	–	3.22	6.47	4.15	2.92	21.3	6.22	7.78	5.11	> 100	–
Cc1ccc2c(c1)Nc1ccccc1P2(=O)O	> 100	–	> 100	> 100	> 100	> 100	> 100	97.7	> 100	> 100	–
Nc1ccc(C(=O)O)cc1	> 100	> 100	> 100	> 100	> 100	–	> 100	> 100	> 100	> 100	> 100
NS(=O)(=O)c1ccc(NCc2nc3ccccc3[nH]2)cc1	> 100	> 100	> 100	> 100	> 100	> 100	> 100	> 100	> 100	–	–
CC(C)N1[C@@H]2CCCC[C@H]2N(C(C)C)[P+]1=O	–	> 100	> 100	> 100	> 100	> 100	–	> 100	> 100	> 100	> 100
COc1cc(-c2nc(SC)nc3c2CCc2ccccc2-3)cc(OC)c1OC	> 100	> 100	–	> 100	> 100	> 100	> 100	> 100	–	> 100	68.8
Cc1cc(OCc2nnc3n2N=C(c2cc(F)c(Cl)cc2Cl)/C(=C/c2ccc(-c4ccc(Cl)cc4)o2)S3)ccc1Cl	> 50	> 50	> 50	> 50	> 50	–	> 50	–	> 50	> 50	30.2
O=c1onc(Nc2ccccc2)n1-c1ccccc1	> 100	> 100	> 100	> 100	> 100	> 100	> 100	> 100	> 100	> 100	–
CCN(CC)C(=O)c1cc([N+](=O)[O-])c(=O)n2c1[nH]c1ccccc12	> 100	–	> 100	> 100	> 100	> 100	> 100	> 100	> 100	> 100	> 100
CCOP(=O)(Cc1nc(C#N)c(N)o1)OCC	> 100	> 100	> 100	–	> 100	> 100	> 100	–	> 100	> 100	> 100
COc1ccc(/C=C(/c2ccc(OC)cc2)c2c(Cl)cc(Cl)c(/C(=C\c3ccc(OC)cc3)c3ccc(OC)cc3)c2N=Nc2ccccc2)cc1	> 100	> 100	–	> 100	> 100	> 100	> 100	> 100	> 100	> 100	> 100
OC(CCl)CN1CC[N+]2(CC1)CC[N+]1(CCN(CC(O)CCl)CC1)CC2 (stereo not given)	> 50	–	> 50	> 50	> 50	> 50	> 50	> 50	> 50	> 50	> 50
COC(=O)C(CNC(=O)/C=C/c1ccc(OC(C)=O)c(OC(C)=O)c1)NC(=O)/C=C/c1ccc(OC(C)=O)c(OC(C)=O)c1 (stereo not given)	> 100	> 100	> 100	> 100	> 100	> 100	> 100	–	> 100	> 100	> 100
